Patent US20200131196A1 (Mount Tam Therapeutics, Inc., priority 2017, published 2020)

Tests used:
[1] = test system: AGS; test: OncoPanel cell proliferation assay, AGS; type: cell-based, human; settings: for GI50: read-out: Cell Count GI50; for IC50: read-out: Cell Count IC50
Protocol: (§1) Cells were grown in RPMI 1640, 10% FBS, 2 mM L-alanyl-L-glutamine, 1 mM Na pyruvate, or a special medium. Cells were seeded into 384-well plates and incubated in a humidified atmosphere of 5% CO2 at 37° C. Compounds were added the day following cell seeding. At the same time, a time zero untreated cell plate was generated. After a 3-day incubation period, cells were fixed and stained to allow fluorescence imaging of nuclei. Compounds (1 mM stock solutions) were serially diluted in half-log steps from the highest test concentration ([…]), and assayed over 10 concentrations with a maximum assay concentration of 0.1% DMSO. Automated fluorescence microscopy was carried out using a Molecular Devices ImageXpress Micro XL high-content imager, and images were collected with a 4× objective. 16-bit TIFF images were acquired and analyzed with MetaXpress 5.1.0.41 software.
(§2) Cell proliferation was measured by the fluorescence intensity of an incorporated nuclear dye. The output is referred to as the relative cell count, where the measured nuclear intensity is transformed to percent of control (POC) using the following formula: […]
(§3) Cellular response parameters were calculated using nonlinear regression to a sigmoidal single-site dose response model:
(§4) EC50 is the test compound concentration at the curve inflection point or half the effective response (parameter C of the fitted curve solution). GI50 is the concentration needed to reduce the observed growth by half (midway between the curve maximum and the time zero value). “Cell Count Activity Area” is an estimate of the integrated area above the curve (Barretina, et al. The Cancer Cell Line Encyclopedia enables predictive modelling of anticancer drug sensitivity. Nature 483: 603-607). […] In rare instances, values <0 or >10 may be observed. […] Curve-fitting, calculations, and report generation was performed using a custom data reduction engine and MathIQ based software (AIM).

[2] = test system: OVCAR3; test: OncoPanel cell proliferation assay, OVCAR3; settings: for GI50: OVCAR-3, read-out: Cell Count GI50; for Cell Count Activity Area: OVCAR3
Protocol: (§6) Cells were seeded into 384-well plates and incubated in a humidified atmosphere of 5% CO2 at 37° C. Compounds were added the day following cell seeding. At the same time, a time zero untreated cell plate was generated. After a 3-day incubation period, cells were fixed and stained to allow fluorescence imaging of nuclei. Compounds (1 mM stock solutions) were serially diluted in half-log steps from the highest test concentration (1 micromol), and assayed over 10 concentrations with a maximum assay concentration of 0.1% DMSO. Automated fluorescence microscopy was carried out using a Molecular Devices ImageXpress Micro XL high-content imager, and images were collected with a 4× objective. 16-bit TIFF images were acquired and analyzed with MetaXpress 5.1.0.41 software.

[3] = test system: A388; test: OncoPanel cell proliferation assay, A388; type: cell-based, human; settings: for GI50: read-out: Cell Count GI50
Protocol: as §1, with “Cells” for “Cells were grown in RPMI 1640, 10% FBS, 2 mM L-alanyl-L-glutamine, 1 mM Na pyruvate, or a special medium. Cells”
as §2, §3
(§5) GI50 is the concentration needed to reduce the observed growth by half (midway between the curve maximum and the time zero value). […] In rare instances, values <0 or >10 may be observed. […] Curve-fitting, calculations, and report generation was performed using a custom data reduction engine and MathIQ based software (AIM).

[4] = test system: CEM-C1; test: OncoPanel cell proliferation assay, CEM-C1; type: cell-based, human; settings: for GI50: read-out: Cell Count GI50; for IC50: read-out: Cell Count IC50
Protocol: as §1, §2, §3, §4

[5] = test system: ST486; test: OncoPanel cell proliferation assay, ST486; type: cell-based, human; settings: for GI50: read-out: Cell Count GI50; for IC50: read-out: Cell Count IC50
Protocol: as §1, §2, §3, §4

[6] = test system: CaOV3; test: OncoPanel cell proliferation assay, CaOV3; type: cell-based, human; settings: for GI50: Caov-3, read-out: Cell Count GI50
Protocol: as §1, §2, §3, §4

[7] = test system: SHP-77; test: OncoPanel cell proliferation assay, SHP-77; settings: for EC50 / GI50 / IC50: Homo sapiens; for EC50: SHP77, read-out: Cell Count EC50; for GI50: SHP77, read-out: Cell Count GI50; for IC50: SHP77, read-out: Cell Count IC50; for Cell Count Activity Area: SHP-77
Protocol: as §6

[8] = test system: NCI-H510A; test: OncoPanel cell proliferation assay, NCI-H510A; type: cell-based, human; settings: for EC50: read-out: Cell Count EC50; for GI50: read-out: Cell Count GI50
Protocol: as §1, §2, §3, §4

[9] = test system: MES-SA; test: OncoPanel cell proliferation assay, MES-SA; type: cell-based, human; settings: for GI50: read-out: Cell Count GI50
Protocol: as §1, §2, §3, §4

[10] = test system: SW684; test: OncoPanel cell proliferation assay, SW684; type: cell-based, human; settings: for GI50: read-out: Cell Count GI50
Protocol: as §1, with “Cells” for “Cells were grown in RPMI 1640, 10% FBS, 2 mM L-alanyl-L-glutamine, 1 mM Na pyruvate, or a special medium. Cells”
as §2, §3, §5

[11] = test system: 786-O; test: OncoPanel cell proliferation assay, 786-O; type: cell-based, human; settings: 786-O; for EC50: read-out: Cell Count EC50; for GI50: read-out: Cell Count GI50
Protocol: as §1, §2, §3, §4

[12] = test system: CML-T1; test: OncoPanel cell proliferation assay, CML-T1; type: cell-based, human; settings: for EC50: read-out: Cell Count EC50; for GI50: read-out: Cell Count GI50
Protocol: as §1, §2, §3, §4

[13] = Homo sapiens, read-out: Cell Count EC50
[14] = Homo sapiens, read-out: Cell Count IC50

With CO[C@H]1C[C@@H]2CC[C@@H](C)[C@@](O)(O2)C(=O)C(=O)N2CCCC[C@H]2C(=O)O[C@H]([C@H](C)C[C@@H]2CC[C@@H](O)[C@H](OC)C2)CC(=O)[C@H](C)/C=C(\C)[C@@H](O)[C@@H](OC)C(=O)[C@H](C)C[C@H](C)/C=C/C=C/C=C/1C [Rapamycin, reference compound] the “Cell Count Activity Area” value [1] was 5.67, the EC50 [1, 13] was 0.0387 nM and the GI50 ([1]; Homo sapiens) was 0.165 nM. It also gave an IC50 ([1]; Homo sapiens) of 0.314 nM, an EC50 ([2]; Homo sapiens, OVCAR-3, read-out: Cell Count EC50) of 1.53 nM and a GI50 ([2]; Homo sapiens) of 124 nM. The IC50 ([2]; Homo sapiens, OVCAR-3, read-out: Cell Count IC50) was over 1000 nM, the “Cell Count Activity Area” value [2] was 2.08 and the EC50 [3, 13] was over 1000 nM. For the same compound, the GI50 ([3]; Homo sapiens) was over 1000 nM, the IC50 [3, 14] was over 1000 nM and the “Cell Count Activity Area” value [4] was 3.61. It also gave an EC50 [4, 13] of 0.265 nM, a GI50 ([4]; Homo sapiens) of 4.36 nM and an IC50 ([4]; Homo sapiens) of over 1000 nM. For the same compound, the “Cell Count Activity Area” value [5] was 3.99, the EC50 [5, 13] was 0.0354 nM and the GI50 ([5]; Homo sapiens) was 0.0524 nM. For the same compound, the IC50 ([5]; Homo sapiens) was over 1000 nM, the “Cell Count Activity Area” value [6] was 2.40 and the EC50 ([6]; Homo sapiens, Caov-3, read-out: Cell Count EC50) was over 1000 nM. For the same compound, the GI50 ([6]; Homo sapiens) was over 1000 nM, the IC50 ([6]; Homo sapiens, Caov-3, read-out: Cell Count IC50) was over 1000 nM and the EC50 [7] was over 1000 nM. For the same compound, the GI50 [7] was over 1000 nM, the IC50 [7] was over 1000 nM and the “Cell Count Activity Area” value [7] was 1.13. For the same compound, the “Cell Count Activity Area” value [8] was 1.63, the EC50 ([8]; Homo sapiens) was over 1000 nM and the GI50 ([8]; Homo sapiens) was over 1000 nM. For the same compound, the IC50 [8, 14] was over 1000 nM, the “Cell Count Activity Area” value [9] was 5.39 and the EC50 [9, 13] was 0.174 nM. For the same compound, the GI50 ([9]; Homo sapiens) was 0.294 nM, the IC50 [9, 14] was 0.415 nM and the “Cell Count Activity Area” value [10] was 2.81. For the same compound, the GI50 ([10]; Homo sapiens) was 1.97 nM, the IC50 [10, 14] was over 1000 nM and the “Cell Count Activity Area” value [11] was 4.17. It also gave an EC50 ([11]; Homo sapiens, 786-0) of 0.227 nM, a GI50 ([11]; Homo sapiens, 786-0) of 1.13 nM and an IC50 ([11]; Homo sapiens, 786-0, read-out: Cell Count IC50) of 3.18 nM. The “Cell Count Activity Area” value [12] was 4.56, the EC50 ([12]; Homo sapiens) was 0.189 nM and the GI50 ([12]; Homo sapiens) was 0.694 nM. The IC50 [12, 14] was 1.93 nM.
With CN[C@@H]1C[C@H]2O[C@@](C)([C@@H]1OC)n1c3ccccc3c3c4c(c5c6ccccc6n2c5c31)C(=O)NC4 [Staurosporine, reference compound] the “Cell Count Activity Area” value [1] was 6.19, the GI50 ([1]; Homo sapiens) was 0.926 nM and the IC50 ([1]; Homo sapiens) was 1.21 nM. For the same compound, the GI50 ([2]; Homo sapiens) was 6.11 nM, the “Cell Count Activity Area” value [2] was 3.41 and the “Cell Count Activity Area” value [3] was 4.99. For the same compound, the GI50 ([3]; Homo sapiens) was 1.03 nM, the “Cell Count Activity Area” value [4] was 4.28 and the GI50 ([4]; Homo sapiens) was 7.27 nM. The IC50 ([4]; Homo sapiens) was 9.2 nM, the “Cell Count Activity Area” value [5] was 4.89 and the GI50 ([5]; Homo sapiens) was 2.83 nM. For the same compound, the IC50 ([5]; Homo sapiens) was 4.61 nM, the “Cell Count Activity Area” value [6] was 5.31 and the GI50 ([6]; Homo sapiens) was 0.273 nM. The EC50 [7] was 28.1 nM, the GI50 [7] was 24.2 nM and the IC50 [7] was 30.8 nM. The “Cell Count Activity Area” value [7] was 3.16, the “Cell Count Activity Area” value [8] was 1.68 and the EC50 ([8]; Homo sapiens) was 39.8 nM. The GI50 ([8]; Homo sapiens) was 56.5 nM, the “Cell Count Activity Area” value [9] was 2.80 and the GI50 ([9]; Homo sapiens) was 13 nM. For the same compound, the GI50 ([10]; Homo sapiens) was 0.95 nM, the “Cell Count Activity Area” value [11] was 4.87 and the EC50 ([11]; Homo sapiens, 786-0) was 3.58 nM. The GI50 ([11]; Homo sapiens, 786-0) was 3.41 nM, the “Cell Count Activity Area” value [12] was 4.13 and the EC50 ([12]; Homo sapiens) was 7.06 nM. It also gave a GI50 ([12]; Homo sapiens) of 6.96 nM.
